The values that follow are results of earlier work, collected in patent US9402907B2, “Pharmaceutical composition containing diamine derivative” (DAIICHI SANKYO COMPANY, LIMITED, priority 2011, dated 2016).

Where two headings read alike, the source gives them in different places.

Take `CN1CCc2nc(C(=O)N[C@@H]3C[C@@H](C(=O)N(C)C)CC[C@@H]3NC(=O)C(=O)Nc3ccc(Cl)cn3)sc2C1` [Compound I, N^1-(5-chloropyridin-2-yl)-N^2-((1S,2R,4S)-4-[(dimethylamino)carbonyl]-2-{[(5-methyl-4,5,6,7-tetrahydrothiazolo[5,4-c]pyridin-2-yl)carbonyl]amino}cyclohexyl)ethanediamide]: the solubility entry is listed as “reduced solubility” (aqueous solution having a pH in the neutral region (e.g., a neutral buffer)) and “favorable solubility” (strongly acidic aqueous solution).
